# Where two headings read alike, the source gives them in different places.
# Experiments:
# P-glycoprotein [1] = experiment: [125I]iodomycin photolabelling of Pgp in EHR2/DNR+ cells; type: binding, mice; conditions: iodomycin 10 nM
# Source text: (§1) Br. J. Cancer (1993), 67, 226 231 ? Macmillan Press Ltd., 1993 Effect of anthracycline analogs on photolabelling of p-glycoprotein by I'25 liodomycin and [3Hlazidopine: Relation to lipophilicity and inhibition of daunorubicin transport in multidrug resistant cells E. Frichel*, E.J.F. Demant2, M. Sehested3 & N.I. Nissen' 'Department of Medicine and Hematology, L 4042, Rigshospitalet-University Hospital, 9, Blegdamsvej, DK-2100 Copenhagen; 2Department of Biochemistry C, The Panum Institute, University of Copenhagen, DK-2200 Copenhagen; 3Department of Pathology, Sundby Hospital, DK-2300 Copenhagen, Denmark. […] We photoaffinity labelled P-glycoprotein in daunorubicin (DNR) resistant Ehrlich ascites tumour cells (EHR2/DNR + ) with a ['25I]iodinated Bolton-Hunter derivative of daunorubicin ([1251]iodomycin) and with [3H]azidopine. […] Anthracyclines are among the most valuable cytostatic agents in clinical use. Their usefulness is, however, limited by the occurrence of tumour cells with the multidrug resistance (MDR) phenotype (Beck, 1987; Bliek & Borst, 1989; Endicott & Ling, 1989; Kaye & Merry, 1985; Moscow & Cowan, 1988). MDR cells have an enhanced amount of a 150- 170 kDa plasma membrane glycoprotein, P-glycoprotein (Pgp) (Kartner et al., 1983 and 1985; Cornwell et al., 1986; Bradley et al., 1988; Beck, 1991a; Roninson, 1991), that may function as a low-specificity transport protein to facilitate the outward transport of cytotoxic agents including the anthracyclines. Thus, increased drug efflux and therefore decreased accumulation is seen in MDR cells not only to the drug for which resistance is developed but also to a wide spectrum of chemically unrelated cytostatics (Bradley et al., 1988; Fojo et al., 1985). […] The aim of this study was to examine these analogs for their ability to com- pete for ligand binding to Pgp and thus service as inhibitors for the outward drug transport system in MDR cells. Anthracycline inter-actions with Pgp were assessed using the specific photolabelling of the protein with [251I]iodomycin, a ['251]iodinated Bolton-Hunter derivative of DNR (Busche et al., 1989a) and with [3H]azidopine ([3H]AZP) which photolabels Pgp in plasma membrane vesicles from EHR2/ DNR + cells (Sehested et al., 1990) as well as in whole cells (Safa et al., 1987; Friche et al., 1990c). […] Material and methods Chemicals Duanorubicin (DNR); AdriamycinR (Doxorubicin/HCl, DOX); 4'-deoxy-4'-iododoxorubicin (DIDOX); and 4- demethoxy-DNR were kindly supplied from Farmitalia, Carlo Erba (Milan, Italy). N,N-dibenzyl-DNR was a gift from Dr Nicholas Bachur, (Baltimore, MD) and N- benzyladriamycin-14-valerate (AD 198) a gift from Professor M. Israel (Memphis, TN). Mitoxantrone was purchased from Lederle (New Jersey, USA), Aclacinomycin A from Lund- beck & Co A/S (Copenhagen, Denmark), OncovinR (Vincristine/HCl, VCR) from Eli Lilly Deutschland GMBH (Giessen, Germany), Cremophor EL from BASF Aktiengesellschaft (Ludwigshafen, Germany), and Tween 80 from the Sigma Chemical Co. (St. Louis, MO). ['251]-Bolton- Hunter reagent (2000 Ci mmol 1), [3H]AZP (42 Ci mmol- ') and non-radioactive AZP were purchased from Amersham International (Amersham, UK). All other chemicals were of analytical grade. Organic solvents were distilled prior to use. Triethylamine was distilled over ninhydrin and anhydrous methanol was stored over molecular sieve (3 A). Tumour cells Cells were either the wild-type Ehrlich ascites tumor line (EHR2) or the corresponding DNR-resistant line (EHR2/ DNR + ) (Dan0, 1971) displaying both the MDR phenotype (Sehested et al., 1990) and as recently shown, decreased Correspondence: E. Friche. Received 22 April 1992; and in revised form 21 September 1992.
# P-glycoprotein [2] = experiment: [3H]azidopine photolabelling of Pgp in EHR2/DNR+ cells; type: binding, mice; conditions: [3H]AZP 0.4 µM
# Source text: as §1
# [3] = pH 7.45
# Source text: as §1
# EHR2/DNR+ [4] = conditions: in vivo; ref Friche et al., 1987; cited from earlier work
# EHR2/DNR+ [5] = conditions: in vitro clonogenic assay; ref Friche et al., 1990b; cited from earlier work
structure (smiles),measurement,setting,value
COc1cccc2c1C(=O)c1c(O)c3c(c(O)c1C2=O)C[C@@](O)(C(C)=O)C[C@@H]3O[C@H]1C[C@H](N)[C@H](O)[C@H](C)O1 [Daunorubicin],Per cent inhibition of [125I]iodomycin photolabelling of Pgp,"P-glycoprotein [1]; 10 µM drug (1000-fold molar excess), 30 min 37°C",52.5%
same,Per cent inhibition of [125I]iodomycin photolabelling of Pgp,P-glycoprotein [1]; 20 µM drug,82.7%
same,Per cent inhibition of [125I]iodomycin photolabelling of Pgp,"P-glycoprotein [1]; 20 µM drug, listed as DNR",83%
same,Per cent inhibition of [125I]iodomycin photolabelling of Pgp,P-glycoprotein [1]; 40 µM drug,90.6%
same,Per cent inhibition of [125I]iodomycin photolabelling of Pgp,"P-glycoprotein [1]; 40 µM drug, listed as DNR",90%
same,Per cent inhibition of [3H]AZP photolabelling of Pgp,P-glycoprotein [2]; 10 µM drug,8.0%
same,Per cent inhibition of [3H]AZP photolabelling of Pgp,P-glycoprotein [2]; 20 µM drug,33.2%
same,Per cent inhibition of [3H]AZP photolabelling of Pgp,P-glycoprotein [2]; 40 µM drug (100-fold molar excess),50.0%
same,"Lipid solubility (O/W), octanol/water partition coefficient",[3],7.85
same,Resistance of EHR2/DNR+ subline,EHR2/DNR+ [4],at least 16 fold
same,Resistance of EHR2/DNR+ subline,EHR2/DNR+ [5],about 80 fold

# Source: PMC1968196, “Effect of anthracycline analogs on photolabelling of p-glycoprotein by [125I]iodomycin and [3H]azidopine: relation to lipophilicity and inhibition of daunorubicin transport in multidrug resistant cells” (British Journal of Cancer, 1993)
